The values that follow come from publication PMC11714206, “Massively Parallel Screening of Toll/Interleukin‐1 Receptor (TIR)‐Derived Peptides Reveals Multiple Toll‐Like Receptors (TLRs)‐Targeting Immunomodulatory Peptides” (Advanced Science, 2024).

This experiment concerns the target T1, MyD88^TIR (Homo sapiens, UniProt Q99836).
T1 construct: MyD88 (residues 148–296); 6xHis; made in house; host or cells: E. coli BL21 (DE3)
The experiment in a line: T‐Surf phage library (P8 and P3) selection against MyD88^TIR, four rounds, NGS read counts. The experiment is classed as binding. Particulars: for P3_MyD88 Rank (after) / P3_MyD88 Rank (before): P3 library; for Population: P8_MyD88 pool: P8 T-Surf phage library, 4th round of selection against MyD88 TIR, share of NGS reads; for P8_MyD88 Rank (after) / P8_MyD88 Rank (before): P8 library. The method in brief: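 Four panning rounds on TIR domain adsorbed at 5 µg mL^−1; binding 1 h at 20–22 °C, elution with 100 mM HCl. Output: NGS read counts of round‐4 pools versus naïve library.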

Where [1] appears, read: P3_MyD88: rank by count after grouping.
Where [2] appears, read: P3_MyD88: rank by count before grouping.
Setting [3] is: 4R selection against MyD88, rank after grouping.
[4] abbreviates: 4R selection against MyD88, rank before grouping.
Setting [5] is: selection against MyD88 TIR, rank by count after grouping.
The mark [6] stands for this setting: selection against MyD88 TIR, rank by count before grouping.
[7] abbreviates: P8_MyD88: rank by count after grouping.
Where [8] appears, read: P8_MyD88: rank by count before grouping.
[9] abbreviates: selection against MyD88, rank after grouping.
The mark [10] stands for this setting: selection against MyD88, rank before grouping.
Where [11] appears, read: P8_MyD88: rank by NGS read count after grouping.
The mark [12] stands for this setting: P8_MyD88: rank by NGS read count before grouping.
The mark [13] stands for this setting: selection against MyD88, rank by count after grouping.
[14] abbreviates: selection against MyD88, rank by count before grouping.

T1 sequence (Q99836 148-296): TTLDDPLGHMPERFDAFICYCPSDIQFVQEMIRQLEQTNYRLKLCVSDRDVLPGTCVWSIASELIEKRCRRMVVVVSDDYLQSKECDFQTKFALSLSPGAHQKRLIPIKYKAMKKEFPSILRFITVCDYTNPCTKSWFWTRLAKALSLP

On to EWIRTAASGAERTSA, for which the “Rank (after)” value under setting [1] is given as 388. Moreover, the “Rank (before)” value under setting [2] was 2178.

With EWIWDKLIYALSRNPH, under setting [3], the “P3_MyD88 Rank (after)” value is recorded as 586. Under setting [4], the “P3_MyD88 Rank (before)” value turned out to be 2127.

As for EWLREQLRSARKERLP, the “Rank (after)” value under setting [1] came out at 442. Besides, under setting [2], the “Rank (before)” value is listed as 2126.

Regarding EWMREQLRPPLKERLP, the “Rank (after)” value under setting [1] is 421. The “Rank (before)” value under setting [2] was found to be 2179.

Regarding EWMREQRRPALKERLP, the “P3_MyD88 Rank (after)” value under setting [3] stood at 599. Moreover, under setting [4], the “P3_MyD88 Rank (before)” value was determined as 2180.

Take EWNRKQKRPDQKERLQ: under setting [3], the “P3_MyD88 Rank (after)” value is given as 608. Besides, under setting [4], the “P3_MyD88 Rank (before)” value was found to be 2185.

With EWSREQLRPALKESLP, the “P3_MyD88 Rank (after)” value under setting [5] was 239. Moreover, the “P3_MyD88 Rank (before)” value under setting [6] is on record as 2184.

Consider EWVKNSLLQYLDSQFE, for which the Population stood at 0.00886%. In addition, the “Rank (after)” value under setting [7] is listed as 151. Also, the “Rank (before)” value under setting [8] stood at 166.

On to EWVWDYLLPNLESPAG, for which, under setting [7], the “Rank (after)” value came out at 437. Besides, the “Rank (before)” value under setting [8] is reported as 3162.

Regarding EYRNESKSVWDIINAI, under setting [3], the “P8_MyD88 Rank (after)” value is listed as 642. For the same sequence, the “P8_MyD88 Rank (before)” value under setting [4] was 3172.

For the sequence FAANPLSFHVRVKLGG, under setting [9], the “P8_MyD88 Rank (after)” value is recorded as 501. The “P8_MyD88 Rank (before)” value under setting [10] worked out at 1303.

Turning to FDARTWFFQEMGIIVE, under setting [3], the “P8_MyD88 Rank (after)” value was found to be 603. The “P8_MyD88 Rank (before)” value under setting [4] is reported as 1307.

Take FDASSSWALDELLRILY: the “Rank (after)” value under setting [7] is 404. In addition, the “Rank (before)” value under setting [8] was found to be 813.

FDASTWFFQEWARFL: the “Rank (after)” value under setting [11] is recorded as 930. The “Rank (before)” value under setting [12] is 1313.

Turning to FDASTWWLRELLQIA, the “Rank (after)” value under setting [7] is reported as 413. Besides, the “Rank (before)” value under setting [8] amounted to 814.

As for FDYELQQSLFHALIMR, the “P8_MyD88 Rank (after)” value under setting [5] is given as 213. Further, under setting [6], the “P8_MyD88 Rank (before)” value is recorded as 296.

FFSGFRELEDFISKLW: the Population was determined as 0.02%. Besides, the “Rank (after)” value under setting [7] came out at 105. In addition, the “Rank (before)” value under setting [8] is on record as 108.

As to FFSGFREQEDFISKRW, under setting [13], the “P8_MyD88 Rank (after)” value turned out to be 681. The “P8_MyD88 Rank (before)” value under setting [14] came to 1297.

Take FFWMQLRSLLGTPGGL: the “P8_MyD88 Rank (after)” value under setting [5] came to 194. Also, under setting [6], the “P8_MyD88 Rank (before)” value turned out to be 252.

With FGDHRMWWEDLVGIVD, the “P8_MyD88 Rank (after)” value under setting [13] is recorded as 695. For the same sequence, the “P8_MyD88 Rank (before)” value under setting [14] stood at 1302.

As for FHGDELRDNFIRYLVW, the “P8_MyD88 Rank (after)” value under setting [5] stood at 252. The “P8_MyD88 Rank (before)” value under setting [6] came to 421.

In turn, FIDFLFDAFETKGIFV displayed a Population of 0.0216%. Under setting [7], the “Rank (after)” value is given as 103. In addition, the “Rank (before)” value under setting [8] is reported as 107.

FIRYLVWGLRDERLNL: the “P8_MyD88 Rank (after)” value under setting [5] stood at 208. The “P8_MyD88 Rank (before)” value under setting [6] is listed as 297.

FISDLYEALTRAGILA: under setting [11], the “Rank (after)” value is recorded as 964. Besides, the “Rank (before)” value under setting [12] was 1341.

As to FLSYLALEKRFSPIGQ, the “P3_MyD88 Rank (after)” value under setting [9] was found to be 515. Besides, the “P3_MyD88 Rank (before)” value under setting [10] was 1343.

FLSYRALEKRFGPLVQ: under setting [9], the “P3_MyD88 Rank (after)” value came out at 536. For the same sequence, under setting [10], the “P3_MyD88 Rank (before)” value is 1378.

FLSYRALEKRFGRLA: the “P3_MyD88 Rank (after)” value under setting [3] is listed as 625. Further, the “P3_MyD88 Rank (before)” value under setting [4] amounted to 1351.

For the sequence FLSYREGLWRLLELSKK, under setting [9], the “P3_MyD88 Rank (after)” value is listed as 498. Also, the “P3_MyD88 Rank (before)” value under setting [10] stood at 1376.

As to FLSYRSLEKRFGPIGP, the “Rank (after)” value under setting [1] worked out at 190. Besides, the “Rank (before)” value under setting [2] was 1344.

As for FRGEDIADNFLSHLVVAL, the “P8_MyD88 Rank (after)” value under setting [5] is on record as 234. Under setting [6], the “P8_MyD88 Rank (before)” value is on record as 371.

For the sequence GALDEVRKILYANETM, the “Rank (after)” value under setting [11] is reported as 908. For the same sequence, the “Rank (before)” value under setting [12] turned out to be 2280.

Consider GEDTLYTFTGHLQATL, for which, under setting [13], the “P3_MyD88 Rank (after)” value is 719. The “P3_MyD88 Rank (before)” value under setting [14] was 1830.

In the case of GEDTRLPLPAICMRP, the “P3_MyD88 Rank (after)” value under setting [13] is 740. Under setting [14], the “P3_MyD88 Rank (before)” value is given as 1831.

As to GEDTRYTFTGHLHRYLVQRGV, the “P3_MyD88 Rank (after)” value under setting [5] is recorded as 240. Also, the “P3_MyD88 Rank (before)” value under setting [6] amounted to 917.

On to GEDTRYTYRPSACDP, for which the “P3_MyD88 Rank (after)” value under setting [13] amounted to 730. Also, the “P3_MyD88 Rank (before)” value under setting [14] turned out to be 1850.

As for GEVPRYIFTGHLHATQ, under setting [3], the “P3_MyD88 Rank (after)” value is recorded as 633. Also, the “P3_MyD88 Rank (before)” value under setting [4] was determined as 1826.

GFIDNLYQALANMGIH: the Population is reported as 0.0143%. Moreover, under setting [7], the “Rank (after)” value is recorded as 122. Moreover, the “Rank (before)” value under setting [8] amounted to 129.

On to GFLYHAFAREGIKIFM, for which the “Rank (after)” value under setting [1] was determined as 124. Further, under setting [2], the “Rank (before)” value was determined as 1793.

As for GFLYQAFAREGLWRLLELSKK, under setting [1], the “Rank (after)” value was determined as 172. In addition, the “Rank (before)” value under setting [2] is 912.

As to GFLYQALARDGFKIFM, under setting [1], the “Rank (after)” value came out at 426. Also, the “Rank (before)” value under setting [2] was 1811.

As to GFREGLWRLLELSKK, the “P3_MyD88 Rank (after)” value under setting [3] worked out at 669. Further, the “P3_MyD88 Rank (before)” value under setting [4] was 1819.

In the case of GIFREGLWRLLELSKK, the “Rank (after)” value under setting [1] came to 105. Besides, under setting [2], the “Rank (before)” value is listed as 919.

As for GLSWGPYEWCRGLYDA, under setting [13], the “P8_MyD88 Rank (after)” value was 770. The “P8_MyD88 Rank (before)” value under setting [14] was 2294.

GLSWGPYEWWIDLYDA: the “Rank (after)” value under setting [11] came to 889. Further, under setting [12], the “Rank (before)” value is 2308.

As for GLSWVRMNGGWACMM, under setting [11], the “Rank (after)” value came to 922. Besides, under setting [12], the “Rank (before)” value amounted to 2287.

For GLYDELFMTETDERKR, the “Rank (after)” value under setting [1] came out at 439. Further, the “Rank (before)” value under setting [2] turned out to be 1851.

For GNDVLGRKGLRVGSKD, the “Rank (after)” value under setting [1] is listed as 437. Moreover, the “Rank (before)” value under setting [2] amounted to 1875.

For the sequence GPQELEWCYERLVTKF, the “P8_MyD88 Rank (after)” value under setting [3] is recorded as 604. Moreover, under setting [4], the “P8_MyD88 Rank (before)” value was found to be 2278.

In the case of GRYDELFMTETDERKC, the “P3_MyD88 Rank (after)” value under setting [3] came out at 603. Further, the “P3_MyD88 Rank (before)” value under setting [4] came to 1852.

Turning to GRYEELFMTETDERLP, the “P3_MyD88 Rank (after)” value under setting [13] is on record as 735. In addition, under setting [14], the “P3_MyD88 Rank (before)” value was found to be 1853.

As to GSFREILLRLLDLSKK, the “P3_MyD88 Rank (after)” value under setting [3] is reported as 671. Besides, under setting [4], the “P3_MyD88 Rank (before)” value worked out at 1858.

Turning to GSFRESLWRLLELSKK, the “Rank (after)” value under setting [1] came to 465. Also, under setting [2], the “Rank (before)” value stood at 1859.

GTFIDYLYHRLMEEGI: the Population was 0.02%. Besides, under setting [7], the “Rank (after)” value was 107. Besides, under setting [8], the “Rank (before)” value amounted to 113.

For the sequence GWAWDYLLPNLEGPAG, under setting [13], the “P8_MyD88 Rank (after)” value is listed as 703. The “P8_MyD88 Rank (before)” value under setting [14] is listed as 2275.

Take GWIREHLWPLLKQRMT: under setting [9], the “P3_MyD88 Rank (after)” value was determined as 521. For the same sequence, the “P3_MyD88 Rank (before)” value under setting [10] is listed as 1877.

Regarding HFAFSSWALDELANIL, under setting [5], the “P8_MyD88 Rank (after)” value was found to be 282. Under setting [6], the “P8_MyD88 Rank (before)” value was 612.

The sequence HFETTEGNFYKFFLFF registered a Population of 0.00694%. Also, the “Rank (after)” value under setting [7] is 165. The “Rank (before)” value under setting [8] came out at 187.

Consider HLIQQGIELHLHQLHL, for which, under setting [11], the “Rank (after)” value was determined as 941. In addition, the “Rank (before)” value under setting [12] amounted to 3556.

Turning to HLLKEFDKKLIPRLK, the “P3_MyD88 Rank (after)” value under setting [13] is reported as 685. Besides, the “P3_MyD88 Rank (before)” value under setting [14] turned out to be 2792.

Take HLLKEFYKKQITAFKD: under setting [5], the “P3_MyD88 Rank (after)” value came out at 194. For the same sequence, the “P3_MyD88 Rank (before)” value under setting [6] was 2773.

With HLLREFDKKLITAFQD, the “P3_MyD88 Rank (after)” value under setting [3] worked out at 594. In addition, the “P3_MyD88 Rank (before)” value under setting [4] was found to be 2769.
